From patent US20080009019A1, “HIGH THROUGHPUT METHOD FOR SCREENING CANDIDATE COMPOUNDS FOR BIOLOGICAL ACTIVITY” (SmithKline Beecham Corporation, priority 2001, published 2008)

Experiments:
Format in all cases: cell-based
[1] = target: T1, MC1R (Homo sapiens, UniProt Q01726); test: Well-based reporter assay
[2] = target: T1, MC1R; test: Bead-based lawn assay, peptides photocleaved from beads in lawn of CHO-6CRE-luc+-MC1R cells; design: expressed in transfected cells; conditions: for response value at plateau compared with maximal response to [NDP]-α-MSH: 3-minute UV time point, FIG. 11B versus FIG. 11A; for UV exposure time point at which response began to plateau: 5 beads per peptide pushed into lawn, UV 365 nm for 0, 0.5, 1, 3, 10 minutes, FIG. 11B
Procedure: Agonists for GPCRs were assayed using beads to which peptides or compounds are attached by a photolinker. The beads were either mixed in the agarose or were applied to the surface of the lawn. The attached compound or peptide was cleaved by exposure to UV light.
Cell culture and assay methods were as described in Example 1. Hexamer peptides were linked to 200 micrometer […]™ microsphere beads (polystyrene core with […]™ pegs—available from Rapp Polymere GmbH of Tubingen, Germany) by a photocleavable linker. Two peptides were tested for validation purposes: Peptide 1-Ac-NH-Ser-Val-dHis-dPhe-Arg-Trp (SEQ ID NO:1) and Peptide 2-Ac-NH-Val-Ala-dHis-dPhe-Arg-Tyr (SEQ ID NO:2). Beads were added to the agarose lawn either by pushing the bead into the agarose with forceps or by suspending the beads in the melted agarose/cell mixture. Peptides were cleaved from the beads by exposure to ultraviolet light using a UV lamp set at 365 nm wavelength (λ).
A time course of delivery of MC1R agonist peptides 1 and 2, which were linked to beads (described in methods), to a lawn of CHO-6CRE-luc^+-MC1R cells is shown in FIGS. 10A-10E. The peptides were cleaved from the beads by increasing the time of UV exposure. FIGS. 10A-10E depict UV exposure for 0, 0.5, 1, 3, and 10 minutes, respectively. A concentration-response curve for of [NDP]-α-MSH was run in row 1 on each lawn at the same concentrations as in FIG. 9. Five (5) beads each of peptide 1 and 2 were pushed into the agarose layer with forceps. Peptide 1 and 2 were on the left and right of each lawn, respectively.
FIG. 11A is a line graph representation of the average luminescence of the 5 beads at each time point. The response was calculated by subtracting the background z value for the lawn from the z value for each area to which the bead was applied. The magnitude of response is dictated by both the response of the reporter cell line and the amount of peptide that can be released from the beads. Both peptide 1 and 2 are full agonists for MC1R when tested in a well-based reporter assay so both peptides are capable of eliciting a response similar to [NDP]-α-MSH.

[3] = target: T2, corticotrophin releasing factor receptor (CRHR1) (Homo sapiens, UniProt P34998); test: Agarose lawn reporter assay, CHO-6xCRE-luc+ cells expressing CRH1 receptor; conditions: approximately 10 nl of 5×10^−4 M to 1.5×10^−6 M peptide solution on lawn by HDR pin tool; 4 hours at 37° C.; FIGS. 7A-7B
T2 construct: expressed in transfected cells
T2 sequence (P34998 24-415): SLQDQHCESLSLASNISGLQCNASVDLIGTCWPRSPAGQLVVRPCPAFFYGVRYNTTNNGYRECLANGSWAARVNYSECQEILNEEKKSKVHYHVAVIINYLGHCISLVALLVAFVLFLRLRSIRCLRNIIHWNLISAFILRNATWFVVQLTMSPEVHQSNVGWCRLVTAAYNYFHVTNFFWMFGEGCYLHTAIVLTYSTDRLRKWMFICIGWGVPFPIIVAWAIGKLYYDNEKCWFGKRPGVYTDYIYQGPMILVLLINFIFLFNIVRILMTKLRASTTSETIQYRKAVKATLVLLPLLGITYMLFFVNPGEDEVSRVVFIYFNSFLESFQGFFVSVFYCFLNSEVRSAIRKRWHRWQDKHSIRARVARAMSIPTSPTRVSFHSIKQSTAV
Text: Chinese hamster ovary (CHO) cells were transfected with a 6xCRE-luciferase^+reporter gene. A stable host cell line was selected, into which cloned human receptors were transfected. Stable cell lines expressing these receptors were selected for screening purposes.
A reporter gene host cell line stably expressing a reporter construct comprising 6 cyclic AMP response elements (CREs) driving the expression of luciferase (6xCRE-luciferase^+) was generated as described by Goetz et al., (2000) J. Biomolec. Screening 5:377-384. […]
1.5 grams of LMP agarose were dissolved in 100 ml of assay medium (DMEM/F12 medium containing 2% glutamine) in a microwave oven. […] The cells were collected from suspension culture and were re-suspended in 60 ml of assay medium for determination of quantity of cells. […]
Solutions of peptides were then delivered to the lawn using a HDR 96-pin tool that delivers approximately 10 nanoliters (nl) of solution. […] Luminescence was detected using a VIEWLUX® camera.
Images were acquired by focusing luminescent light from the OMNI PLATE® tray, for 90 seconds, onto a CCD camera chip via a telecentric lens. […] The gray intensity was determined by scanning each grid unit to determine where the highest point in the region was located. […] The x and y co-ordinates were recorded to facilitate the production of graphical representations of the data.

T1 sequence (Q01726 whole entry): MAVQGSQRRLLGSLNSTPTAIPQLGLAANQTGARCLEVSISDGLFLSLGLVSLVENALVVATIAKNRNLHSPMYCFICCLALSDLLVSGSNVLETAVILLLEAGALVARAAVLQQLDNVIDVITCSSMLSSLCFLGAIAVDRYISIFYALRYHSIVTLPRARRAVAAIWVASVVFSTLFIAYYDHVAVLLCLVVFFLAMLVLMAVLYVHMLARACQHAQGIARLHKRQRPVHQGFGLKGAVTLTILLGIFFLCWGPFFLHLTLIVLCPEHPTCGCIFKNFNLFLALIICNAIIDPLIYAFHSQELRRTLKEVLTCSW

Substance | agonist character for MC1R [1] | response value at plateau compared with maximal response to [NDP]-α-MSH [2] | UV exposure time point at which response began to plateau [2] [min] | concentration-response curve of luminescence activity [3]
Ac-NH-Ser-Val-dHis-dPhe-Arg-Trp [peptide 1] | full agonists | well below the maximal response to [NDP]-α-MSH | 3 | 
Ac-NH-Val-Ala-dHis-dPhe-Arg-Tyr [peptide 2] | full agonists | well below the maximal response to [NDP]-α-MSH | 3 | 
corticotrophin releasing factor [CRH] |  |  |  | concentration-response curve of luminescence activity was only observed when peptide was applied to the cell line expressing the appropriate receptor
